According to patent US20040127519A1 (Pharmacia Corporation, priority 2002, published 2004):

biological target: Recombinant MAPKAPK2 (Homo sapiens, UniProt P49137); assay: Determination of MK-2 IC50 (HSP-peptide phosphorylation, anion exchange resin capture assay); format: biochemical; settings: MK-2 Avg. IC50, Table 2, tricyclic aminocyanopyridine MK-2 inhibitors
Protocol: The phosphorylation of HSP-peptide ([…]) by MAPKAPK2 was measured using an anion exchange resin capture assay method. […] The reaction was terminated and [γ^33P]ATP was removed from solution by the addition of 150 μl of AG 1×8 ion exchange resin in 900 mM sodium formate pH 3.0. A 50 μl aliquot of head volume was removed from the quenched reaction mixture and added to a 96-well plate, 150 μl of Microscint-40 (Packard) was added and the amount of phosphorylated-peptide was determined. Allow the Microscint to sit in the plates for 60 minutes prior to counting.
Compounds are evaluated as potential inhibitors of the MK2 kinase by measuring their effects on MK2 phosphorylation of the peptide substrate. Compounds may be screened initially at two concentrations prior to determination of IC50 values. Screening results are expressed as percent inhibition at the concentrations of compound tested. For IC50 value determinations, compounds are tested at six concentrations in ten-fold serial dilutions with each concentration tested in triplicate. Results are expressed as IC50 values in micromolar. The assay is performed at a final concentration of 2% DMSO.

Chain of Recombinant MAPKAPK2 (P49137 whole entry, species assumed): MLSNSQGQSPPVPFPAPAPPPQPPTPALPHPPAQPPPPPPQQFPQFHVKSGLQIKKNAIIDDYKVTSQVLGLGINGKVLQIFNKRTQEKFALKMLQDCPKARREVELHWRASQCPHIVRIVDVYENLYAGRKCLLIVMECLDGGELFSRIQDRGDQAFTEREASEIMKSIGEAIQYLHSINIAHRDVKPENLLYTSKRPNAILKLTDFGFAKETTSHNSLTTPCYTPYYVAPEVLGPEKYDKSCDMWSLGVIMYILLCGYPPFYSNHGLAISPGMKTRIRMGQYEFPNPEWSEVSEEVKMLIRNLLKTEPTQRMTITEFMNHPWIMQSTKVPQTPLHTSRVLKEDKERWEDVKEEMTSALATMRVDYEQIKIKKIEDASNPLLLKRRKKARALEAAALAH

| Compound | IC50 [µM] |
| --- | --- |
| N#Cc1c(N)nc2c(c1N)Cc1ccc(OCCO)cc1O2 [Example 10] | 0.483 |
| N#Cc1c(N)nc2c(c1N)Cc1cc(N)ccc1O2 [Example 12] | 0.514 |
| CCOCCOc1cc2c(cc1O)Cc1c(nc(N)c(C#N)c1N)O2 [Example 14] | 0.62 |
| COc1ccc2c(c1O)Oc1nc(N)c(C#N)c(N)c1C2 [Example 15] | 0.682 |
| N#Cc1c(N)nc2c(c1N)Cc1ccc(OCCN)cc1O2 [Example 19] | 0.82 |
| N#Cc1c(N)nc2c(c1N)Cc1cc(C(=O)O)ccc1O2 [Example 20] | 0.857 |
| N#Cc1c(N)nc2c(c1N)Cc1ccc(O)c(O)c1O2 [Example 21] | 0.857 |
| N#Cc1c(N)nc2c(c1N)Cc1ccc(OCC(=O)O)cc1O2 [Example 23] | 0.916 |
| COc1cccc2c1Oc1nc(N)c(C#N)c(N)c1C2 [Example 24] | 1.37 |
| N#Cc1c(N)nc2c(c1N)Cc1ccc(OCCN3CCCC3)cc1O2 [Example 25] | 1.68 |
| CNc1c(C#N)c(N)nc2c1Cc1cc(OC)c(OC)cc1O2 [Example 26] | 1.69 |
| COc1ccc2c(c1)Oc1nc(N)c(C#N)c(N)c1C2 [Example 27] | 1.72 |
| CN(C)CCOc1ccc2c(c1)Oc1nc(N)c(C#N)c(N)c1C2 [Example 28] | 1.75 |
| COc1cc(N)cc2c1Oc1nc(N)c(C#N)c(N)c1C2 [Example 29] | 1.79 |
| N#Cc1c(N)nc2c(c1N)Cc1cc(OCCN)c(OCCN)cc1O2 [Example 31] | 2.55 |
| N#Cc1c(N)nc2c(c1N)Cc1cccc([N+](=O)[O-])c1O2 [Example 32] | 2.58 |
| COc1ccc(Nc2c(C#N)c(N)nc3c2Cc2cc(OC)c(OC)cc2O3)cc1 [Example 33] | 2.98 |
| COc1ccc2c(c1)Oc1nc(N)c(C#N)c(N)c1C2 [Example 34] | 3.24 |
| N#Cc1c(N)nc2c(c1N)C(C(C#N)C#N)c1cc(O)ccc1O2 (stereo not shown) [Example 35] | 4.22 |
| CCNc1c(C#N)c(N)nc2c1Cc1ccc(OCC)cc1O2 [Example 37] | 4.76 |

| Compound | IC50 [µM] |
| --- | --- |
| COc1ccc(Nc2c(C#N)c(N)nc3c2Cc2cc(OC)c(OC)cc2O3)cc1 [Example 40] | 6.11 |
| N#Cc1c(N)nc2c(c1N)Cc1ccc(CN3CCCCC3)c(O)c1O2 [Example 42] | 8.28 |
| C=CCOc1cc2c(cc1OCC=C)Oc1nc(N)c(C#N)c(N)c1C2 [Example 43] | 9.6 |
| CCOCCNc1c(C#N)c(N)nc2c1Cc1ccc(OCCOCC)cc1O2 [Example 44] | 9.66 |
| CC(C)(C)OC(=O)COc1cc2c(cc1OCC(=O)OC(C)(C)C)Oc1nc(N)c(C#N)c(N)c1C2 [Example 45] | 10.3 |
| COc1cc2c(cc1OC)Oc1nc(N)c(C#N)c(NCCN)c1C2 [Example 46] | 11.5 |
| N#Cc1c(N)nc2c(c1N)Cc1cc(N)ccc1S2(=O)=O [Example 48] | 14.4 |
| N#Cc1c(N)nc2c(c1N)Cc1cc(Br)ccc1O2 [Example 49] | 15.1 |
| CCCNc1c(C#N)c(N)nc2c1Cc1cc(OC)c(OC)cc1O2 [Example 50] | 15.6 |
| N#Cc1c(N)nc2c(c1N)Cc1cc(O)ccc1S2 [Example 51] | 17.4 |
| CN(C)c1ccc2c(c1)Cc1c(nc(N)c(C#N)c1N)O2 [Example 52] | 17.6 |
| COc1ccc2c(c1)Cc1c(nc(N)c(C#N)c1N)O2 [Example 53] | 19.7 |
| COc1cccc2c1Oc1nc(N)c(C#N)c(N)c1C2C(C#N)C#N (stereo not shown) [Example 54] | 21.2 |
| COc1cc2c(cc1OC)Oc1nc(N)c(C#N)c(NCc3ccccc3)c1C2 [Example 55] | 27.4 |
| C=CCOc1ccc2c(c1)Oc1nc(N)c(C#N)c(N)c1C2 [Example 56] | 33.8 |
| N#Cc1c(N)nc2c(c1N)Cc1cccc(F)c1S2 [Example 57] | 42.2 |
| COc1ccc2c(c1)Cc1c(nc(N)c(C#N)c1N)O2 [Example 58] | 43 |
| N#Cc1c(N)nc2c(c1N)Cc1cccc(OCCN3CCCC3)c1O2 [Example 59] | 45.2 |
| N#Cc1c(N)nc2c(c1N)Cc1cc([N+](=O)[O-])ccc1O2 [Example 60] | 62.2 |
| N#Cc1c(N)nc2c(c1N)Cc1cccc(OCC(=O)O)c1O2 [Example 62] | 72.2 |

same assay, conditions: MK-2 Avg. IC50, Table I, aminocyanopyridine MK-2 inhibitors

| Compound | IC50 [µM] |
| --- | --- |
| N#Cc1c(N)nc2c(c1-c1cccc(F)c1F)CCc1[nH]ncc1-2 [Example 3] | 1.95 |
| N#Cc1c(N)nc2c(c1-c1ccco1)CCc1cc(C(=O)O)ccc1-2 [Example 5] | 2.35 |
| N#Cc1c(-c2c[nH]c(C(N)=O)c2)cc(-c2ccco2)nc1N [Example 6] | 2.41 |
| N#Cc1c(N)nc2c(c1-c1ccccc1)CCc1n[nH]cc1-2 [Example 7] | 2.73 |
| Cn1cnc(-c2cc(-c3ccco3)nc(N)c2C#N)c1 [Example 8] | 2.88 |
| N#Cc1c(N)nc2c(c1-c1ccco1)CCc1cc(O)ccc1-2 [Example 10] | 3.48 |
| N#Cc1c(N)nc2c(c1-c1c(F)cccc1F)CCc1[nH]ncc1-2 [Example 11] | 3.59 |
| N#Cc1c(-c2cnc[nH]2)cc(-c2ccc(O)cc2)nc1N [Example 12] | 3.62 |
| N#Cc1c(-c2ccccc2F)cc(-c2ccco2)nc1N [Example 13] | 4.06 |
| N#Cc1c(-c2ccccc2F)cc(-c2ccco2)nc1N [Example 14] | 4.41 |
| N#Cc1c(N)nc2c(c1-c1ccccc1F)CCc1ccccc1-2 [Example 15] | 4.47 |
| N#Cc1c(-c2ccco2)cc(-c2ccc(C(=O)O)cc2)nc1N [Example 16] | 4.63 |
| N#Cc1c(-c2cnc[nH]2)cc(-c2ccco2)nc1N [Example 17] | 4.94 |
| N#Cc1c(N)nc2c(c1-c1nnc[nH]1)CCc1cc(C(=O)O)ccc1-2 [Example 19] | 5.74 |
| N#Cc1c(-c2cnc[nH]2)cc(-c2cccc(O)c2)nc1N [Example 20] | 5.81 |
| N#Cc1c(-c2cnc[nH]2)cc(-c2ccco2)nc1N [Example 21] | 5.95 |
| N#Cc1c(N)nc2c(c1N)CC(C(F)(F)F)O2 (stereo not shown) [Example 23] | 6.14 |
| N#Cc1c(N)nc2c(c1-c1ccco1)CCc1c[nH]cc1-2 [Example 24] | 6.2 |
| N#Cc1c(-c2ccccc2F)cc(-c2ccc(C(=O)O)cc2)nc1N [Example 25] | 6.4 |
| N#Cc1c(N)nc2c(c1-c1ccco1)CCc1cnccc1-2 [Example 26] | 6.48 |
| N#Cc1c(-c2ccccc2F)cc(-c2ccc(O)c(O)c2)nc1N [Example 27] | 7.54 |
| Cn1cnc(-c2cc(-c3ccccc3)nc(N)c2C#N)c1 [Example 28] | 7.63 |
| N#Cc1c(-c2ccco2)cc(-c2cc[nH]n2)nc1N [Example 29] | 7.72 |
| N#Cc1c(-c2cnc[nH]2)cc(-c2ccc(C(=O)O)cc2)nc1N [Example 30] | 8.37 |
| N#Cc1c(N)nc2c(c1-c1cccc(F)c1)CCc1n[nH]cc1-2 [Example 31] | 8.5 |
| N#Cc1c(-c2ccccc2F)cc(-c2ccc(O)c(O)c2)nc1N [Example 32] | 9.2 |

| Compound | IC50 [µM] |
| --- | --- |
| CS(=O)(=O)Nc1ccc(-c2cc(-c3ccco3)c(C#N)c(N)n2)cc1 [Example 33] | 9.27 |
| N#Cc1c(N)nc2c(c1-c1ccco1)CCc1[nH]ccc1-2 [Example 34] | 9.4 |
| N#Cc1c(-c2cnc[nH]2)cc(-c2ccccc2)nc1N [Example 35] | 9.4 |
| N#Cc1c(N)nc2c(c1-c1ccco1)CCc1ccccc1-2 [Example 36] | 9.42 |
| COc1ccc(-c2cc(-c3cnc[nH]3)c(C#N)c(N)n2)cc1 [Example 37] | 9.43 |
| N#Cc1c(-c2ccco2)cc(-c2cn[nH]c2)nc1N [Example 39] | 11.6 |
| COc1ccc(-c2c(C#N)c(N)nc3c2CCc2[nH]ncc2-3)cc1 [Example 40] | 12 |
| N#Cc1c(N)nc2c(c1-c1ccc(F)cc1)CCc1n[nH]cc1-2 [Example 42] | 12.9 |
| N#Cc1c(N)nc2c(c1-c1nnc[nH]1)CCc1ccccc1-2 [Example 43] | 13.1 |
| N#Cc1c(N)nc2c(c1N)CC(CCl)O2 (stereo not shown) [Example 44] | 13.4 |
| N#Cc1c(-c2cnc[nH]2)cc(-c2ccccc2)nc1N [Example 45] | 14.2 |
| N#Cc1c(-c2ccco2)cc(-c2ccc(S(N)(=O)=O)cc2)nc1N [Example 46] | 16.1 |
| N#Cc1c(-c2ccco2)cc(-c2ccc(B(O)O)cc2)nc1N [Example 47] | 16.7 |
| COc1ccc(-c2cc(-c3nnc[nH]3)c(C#N)c(N)n2)cc1 [Example 48] | 17.3 |
| N#Cc1c(-c2ccccc2F)cc(-c2ccoc2)nc1N [Example 49] | 17.9 |
| CSc1cc(-c2ccco2)nc(N)c1C#N [Example 50] | 22.5 |
| N#Cc1c(-c2ccccc2F)cc(-c2cccc(O)c2)nc1N [Example 51] | 24.2 |
| N#Cc1c(-c2ccccc2Br)cc(-c2ccco2)nc1N [Example 53] | 26.1 |
| N#Cc1c(-c2ccccc2)cc(-c2cccs2)nc1N [Example 55] | 26.9 |
| COc1cccc(-c2c(C#N)c(N)nc3c2CCc2[nH]ncc2-3)c1 [Example 56] | 27.8 |
| Cn1ncc2c1CCc1c-2nc(N)c(C#N)c1-c1ccco1 [Example 57] | 28.3 |
| N#Cc1c(-c2ccccc2F)cc(-c2ccc[nH]2)nc1N [Example 58] | 29.3 |
| CC1Cc2n[nH]cc2-c2nc(N)c(C#N)c(-c3ccco3)c21 (stereo not shown) [Example 59] | 31.3 |
| Cn1ccc(-c2cc(-c3ccco3)c(C#N)c(N)n2)c1 [Example 60] | 32.1 |
| CC(=O)Nc1ccc(-c2c(C#N)c(N)nc3c2CCc2[nH]ncc2-3)cc1 [Example 62] | 35.9 |
